According to publication PMC3919815, “Anti-Tumor Effects of Novel 5-O-Acyl Plumbagins Based on the Inhibition of Mammalian DNA Replicative Polymerase Activity” (PLoS ONE, 2014):

Assays:
[1] = target: T1, Rice pol λ (Oryza sativa subsp. japonica, UniProt Q67VC8); assay: DNA polymerase activity inhibition; format: biochemical, rice (Oryza sativa L. cv. Nipponbare)
T1 construct: His6 (C); made in house; host or cells: E. coli
Source text: Pol α was purified from calf thymus by immunoaffinity column chromatography as described by Tamai et al.. Recombinant rat pol β was purified from Escherichia coli JMpβ5 as described by Date et al.. The human pol γ catalytic gene was cloned into pFastBac. Histidine-tagged enzyme was expressed using the BACTO-BAC HT Baculovirus Expression System according to the manufacturer's instructions (Life Technologies, Frederick, MD, USA) and purified using ProBound resin (Invitrogen Japan, Tokyo Japan). Human pols δ and ε were purified by nuclear fractionation of human peripheral blood cancer cells (Molt-4) using the second subunit of pol δ and ε-conjugated affinity column chromatography, respectively. A truncated form of human pol η (residues 1–511) tagged with His6 at its C-terminal was expressed in E. coli cells and purified as described by Kusumoto et al.. A recombinant mouse pol ι tagged with His6 at its C-terminal was expressed and purified by Ni–NTA column chromatography. […]
The chemically synthesized 5-O-acyl plumbagins (2a–j) were dissolved in distilled dimethyl sulfoxide (DMSO) to various concentrations and sonicated for 30 s. […] Activity without inhibitor was considered 100%, and the relative activity was determined for each inhibitor concentration. […]

[2] = tested on: nine human cancer cell lines; assay: Cancer cell viability, MTT assay, summary over the panel; format: cell-based; details: range over nine cell lines, 48 h
Description: The following human cancer cell lines were obtained from the American Type Culture Collection (Manassas, VA, USA): lung (A549), prostate (DU145 and PC3), colon (HCT116 and HT-29), cervix (HeLa), hepatocellular liver (HepG2), breast (MCF-7), and pancreatic cancer (PANC-1). These cells were cultured in RPMI 1640 medium supplemented with 10% fetal bovine serum, penicillin (100 units/mL), streptomycin (100 µg/mL), and 1.6 mg/mL NaHCO3 at 37°C in a humid atmosphere of 5% CO2/95% air. For the cell viability assay, cells were seeded at 1×10^3 cells/well in a 96-well microplate with various concentrations of the test compounds, and incubated for 48 h. MTT (3-(4,5-dimethylthiazol-2-yl)-2,5-diphenyl tetrazolium bromide) solution was added to a final concentration 0.6 mg/mL in Milli-Q purified water for 2 h, after which time the medium was discarded and the cells lysed in DMSO. A540 was then measured in a microplate reader (Model 680, Bio-Rad Laboratories, Hercules, CA, USA).

[3] = Stability under basic conditions (Triton B, UV-vis); format: physicochemical; details: 1 equivalent Triton B in 1,4-dioxane and MeOH, 1.1×10^−3 M, 25°C
Description: A 2.2×10^−2 M solution of Triton B in MeOH was added to a 2.2×10^−2 M solution of each sample in 1,4-dioxane. Then, the mixture was diluted with 1,4-dioxane to a concentration of 1.1×10^−3 M. Then, the stability of each compound was monitored by UV-vis spectroscopy. UV-vis spectra were measured at 25°C on a UV-vis spectrophotometer (JASCO V-650, Tokyo, Japan). For comparison, UV-vis spectra of 1.1×10^−3 M solution of C18:1-acyl plumbagin (2f), and C18:1-acyl juglone (5f) in 1,4-dioxane and MeOH (19/1, v/v) were measured.

[4] = tested on: HT-29 solid tumors; assay: In vivo anti-tumor assay; design: species or system nude mice
Source text: Male BALB/c nu/nu mice at 5 week of age (18 g) were purchased from Japan SLC, Inc. (Shizuoka, Japan). Mice receiving standard laboratory chow and water ad libitum were acclimatized for 1 week before inoculation with cancer cells. For in vivo experiments, human colon HT-29 cells (1×10^7 cells/mouse) were subcutaneously injected into nude mice. Mice bearing solid tumors that had grown to approximately 100 mm^3 in volume (tumor volume = length×width×height) at 12 days after implantation were used for the assessment of anti-tumor effects. They were divided randomly into five groups (n = 6/group). One of the five groups was a control group injected with 0.1 mL of phosphate buffered saline (PBS) alone, and other groups were injected with vitamin K3 (3), juglone (4), C18:1-acyl juglone (5f), and C18:1-acyl plumbagin (2f) dissolved in PBS at a dose of 5 mg/kg. The above administrations all took place between days 12–39 subsequent to implantation. All mice were injected subcutaneously 14 times at […] with the compound and PBS alone (control). Tumor growth was measured at 1-day intervals for 40 days after implantation. At the end of the in vivo anti-tumor assay, some mice treated with the test compounds and PBS were independently examined to observe major organs such as lung, heart, spleen, stomach, liver, pancreas, kidney, intestine, and brain.

T1 sequence (Q67VC8 whole entry): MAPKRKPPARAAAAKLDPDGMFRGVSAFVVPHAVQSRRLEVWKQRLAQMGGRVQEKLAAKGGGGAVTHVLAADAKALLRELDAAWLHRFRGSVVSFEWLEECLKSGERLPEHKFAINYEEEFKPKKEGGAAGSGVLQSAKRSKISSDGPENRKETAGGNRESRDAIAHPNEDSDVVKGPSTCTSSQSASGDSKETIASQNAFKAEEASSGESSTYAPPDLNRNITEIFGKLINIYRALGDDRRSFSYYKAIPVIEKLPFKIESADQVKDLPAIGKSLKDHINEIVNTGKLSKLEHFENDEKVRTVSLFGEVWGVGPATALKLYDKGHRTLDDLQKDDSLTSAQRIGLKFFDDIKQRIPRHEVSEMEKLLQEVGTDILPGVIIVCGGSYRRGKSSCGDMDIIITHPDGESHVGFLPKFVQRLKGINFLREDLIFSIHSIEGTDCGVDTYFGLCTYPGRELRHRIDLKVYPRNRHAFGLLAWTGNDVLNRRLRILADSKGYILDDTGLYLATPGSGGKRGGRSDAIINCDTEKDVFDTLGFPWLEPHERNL

**Q.** For `CCCCCCCC/C=C\CCCCCCCC(=O)Oc1cccc2c1C(=O)C=C(C)C2=O` [2f, 5-O-oleoyl-2-methyl-1,4-naphthoquinone], which “effect on enzyme activity (in words)” value [1] is on record?
**A.** had no effect

**Q.** What about the IC50 ([1]; 0.05 units enzyme) of the same compound?
**A.** > 100 µM

**Q.** What about the LD50 values [2] of the same compound?
**A.** 2.9 to 21.0 µM

**Q.** What about the “stability under basic conditions (UV spectra)” value [3] of the same compound?
**A.** Almost no changes in UV spectra

**Q.** And the “anti-tumor effect, fold stronger than the other compounds tested” value ([4]; 5 mg/kg, versus vitamin K3, juglone, C18:1-acyl juglone)?
**A.** > 3 fold

**Q.** What about the “decreased rates of tumor volume” value ([4]; at 40 days, 5 mg/kg subcutaneously in PBS, versus PBS control, n = 6) of the same compound?
**A.** 30.5%
